Source: US20090042991A1, “Methods of increasing natural killer cell activity for therapy” (priority 2005, published 2009)
Several values for one entry are separate records, joined by “and”; a condition that tells them apart may be missing. Equal values may be shown once. Entries after “also recorded” stand apart in the source; their conditions may differ.

Legend:
NK cell activity = assay: NK cell cytotoxic activity of patient PBMC (K562/eGFP flow cytometry), lung carcinoma study; format: in vivo, human; settings: for % tumor cell lysis post-dose / NK activity (change before and after dosing) / % tumor cell lysis pre-dose: Effector/Target 80:1; for % tumor cell lysis pre-dose: baseline before dosing
Excerpt: The following procedure can be employed to assay NK cell activity in a subject. The procedure is adapted from Kantakamalakul W, Jaroenpool J, Pattanapanyasat K. A novel enhanced green fluorescent protein (EGFP)-K562 flow cytometric method for measuring natural killer (NK) cell cytotoxic activity. J Immunol Methods. 2003 Jan. 15; 272:189-197, the entire teachings of which are incorporated herein by reference.
Materials and methods: Human erythroleukaemic cell line, K562, was obtained from American Type Culture Collection (CCL-243, American Type Culture Collection, Manassas, Va.), and cultured in RPMI-1640 medium (Cat#1875-093Gibco Invitrogen Corp, Carlsbad, Calif.) supplemented with 10% heat inactivated fetal calf serum (Gibco), 2 mM L-glutamin, 100 μg/ml streptomycin and 100 IU/ml penicillin at 37° C. with 5% CO2. K562 cells were transduced with retroviral vector which encode green fluorescent protein (eGFP). Stable cell line was selected with antibiotic, G418.
The subject's peripheral blood mononuclear cells (PBMCs) were prepared by clinical study sites and received in BD Vacutainer Cell Preparation Tube with sodium heparin (Product Number: 362753, Becton Dickinson, Franklin Lakes, N.J.).
Effector cells alone and target cells alone were used as controls. All tubes were incubated at 37° C. with 5% CO2 for about 3.5 hr. Ten microliters of propidium iodide (PI) at a concentration of 1 mg/mL was added t each tube including effector and target control tubes and then incubated at room temperature for 15 min.
Cytotoxic activity was analyzed with a FACSCalibur flow cytometer (Becton Dickinson). Linear amplification of the forward and side scatter (FSC/SSC) signals, as well as logarithmic amplification of eGFP and PI emission in green and red fluorescence were obtained. Ten thousand events per sample tube with no gating for acquisition were collected for analysis. Data analysis for two-parameter dot plots for eGFP versus PI was performed using CELLQuest (Becton Dickinson Biosciences) software to enumerate live and dead target cells. Debris and dead cells were excluded by setting a threshold of forward light scatter.
(§1) Dosing was IV q 3 weeks for up to 6 cycles in the absence of dose-limiting toxicity or progression. […] The phase 2 primary endpoint is time to progression, with secondary endpoints of response rate, survival, and quality of life. Study pharmacodynamic parameters include NK cell activity and Hsp70 level.
Best Response indicates an evaluation of the patient's tumor: PR=at least a 30% decrease in the sum of the longest diameters as compared to baseline, while SD indicates less than 20% of an increase and less than 30% of a decrease in the sum of the longest diameters as compared to baseline. […] NK Activity indicates the change in NK activity before and after dosing.

[1] = Phase 1/2 lung carcinoma study: safety; format: in vivo, human
Method: Phase 1 (safety/PK/MTD (maximum tolerated dose) was followed by a Phase 2 randomized two arm portion. Two dose levels were evaluated in Phase 1.
as §1

soft tissue sarcomas = assay: Phase 2 study: tumor response with paclitaxel; format: in vivo, human
Excerpt: Major inclusion criteria are refractory or recurrent soft tissue sarcomas other than gastrointestinal stromal tumor (GIST), with evidence of recent progression. […] Best Response indicates an evaluation of the patient's tumor: PR=at least a 30% decrease in the sum of the longest diameters as compared to baseline; SD indicates less than 20% of an increase and less than 30% of a decrease in the sum of the longest diameters as compared to baseline; and PD=at least a 20% increase in the sum of the longest diameters as compared to baseline. NK Activity indicates the change in NK activity before and after dosing.

[2] = system: advanced metastatic melanoma; assay: 2 stage Phase 2 study: tumor response with paclitaxel; format: in vivo, human; settings: for Best Response cycle 2 week 4: one value per subject
Method: The higher tolerated dose level was expanded to a total of 20 patients (Stage 1). The study will continue to Stage 2 if 7 or more patients have a response of stable disease or better, or at least 2 patients have a partial response or better. A safety assessment was performed with the first 6 patients enrolled as the weekly dose schedule had not previously been studied in humans. The primary endpoint is non-progression rate (NPR) at 3 months and response rate. Pharmacodynamic parameters include pre and post-dose NK cell activity in blood and when possible, tumor biopsies. […] Best Response indicates an evaluation of the patient's tumor: SD indicates less than 20% of an increase and less than 30% of a decrease in the sum of the longest diameters as compared to baseline; and PD=at least a 20% increase in the sum of the longest diameters as compared to baseline. NK Activity indicates the change in NK activity before and after dosing.

[3] = Phase I trial: pharmacokinetics in plasma by LC/MS
Method: Pharmacokinetic (PK) studies were performed during cycle 1 using liquid chromatography/mass spectrometry (LC/MS) to measure both compounds in plasma. Heat shock protein 70 (Hsp70) was measured in plasma before and after treatment.

[4] = system: non-small cell lung carcinoma; assay: Phase 1/2 study: tumor response (RECIST) with carboplatin and paclitaxel; format: in vivo, human; settings: for Best Response / Target Lesions (percent change): one value per subject
[5] = Paclitaxel 175 + Cmpnd (1) 233 mg/M^2 (carboplatin AUC 6), one value per subject
[6] = Paclitaxel 200 + Cmpnd (1) 266 mg/M^2 (carboplatin AUC 6), one value per subject
[7] = Paclitaxel 175 + Cmpnd (1) 233 mg/M^2 (carboplatin AUC 6)
[8] = Paclitaxel 200 + Cmpnd (1) 266 mg/M^2 (carboplatin AUC 6)

## CN(NC(=O)CC(=O)NN(C)C(=S)c1ccccc1)C(=S)c1ccccc1 [Compound (1)]
35 patients, 8 dose levels, with paclitaxel IV every 3 weeks
  serious effects specifically attributable to Compound (1): No serious effects
Phase I, with paclitaxel, adverse events consistent with those expected for paclitaxel alone
  tolerability of the combination: well-tolerated
NK cell activity; [5]
  % tumor cell lysis post-dose: 30.8% and 7.75% and 14.61% and 16.14% and 8.76% and 10.05%
  NK activity (change before and after dosing): increase; also recorded: no change
  % tumor cell lysis pre-dose: 7.79% and 0.92% and 10.7% and 9.55% and 3.12% and 7.84%
NK cell activity; [6]
  % tumor cell lysis post-dose: 5.5% and 7.81%
  NK activity (change before and after dosing): decrease; also recorded: increase
  % tumor cell lysis pre-dose: 8.4% and 3.59%
NK cell activity; dose not printed (subjects 9-11), listed as Cmpnd (1)
  NK activity (change before and after dosing): increase; also recorded: decrease
NK cell activity; evaluable samples, assayed 7 days after the second dose
  patients with increased NK cell activity: Seven of the 8
NK cell activity; of the 11 original patients, paired t-test p=0.06, not significant
  patients with increase in NK cell activity between pre- and post-dose: 8 patients
[1]; Phase 1, Cohorts 1 and 2, 16 patients, with carboplatin AUC 6 and paclitaxel
  first cycle dose-limiting toxicities: No first cycle dose-limiting toxicities
[1]; Phase 1, usually Grade 1-2, with carboplatin and paclitaxel
  adverse effects (AEs): arthralgia and myalgia, peripheral neuropathy, rash, nausea, and vomiting, fatigue, alopecia, edema, dehydration, constipation, and decreased blood counts
[1]; at the dose levels studied, safety profile similar to carboplatin:paclitaxel alone
  tolerability of carboplatin:paclitaxel:Compound (1) combination: well tolerated
Soft tissue sarcomas; Paclitaxel 80 + Cmpnd (1) 213 mg/M^2 weekly, one value per subject
  Best Response cycle 2: SD (less than 20% of an increase and less than 30% of a decrease in the sum of the longest diameters as compared to baseline); also recorded: PD (at least a 20% increase in the sum of the longest diameters as compared to baseline)
Soft tissue sarcomas; patients completing the study (#23-#29, #31-33)
  patients with at least a 20% increase in sum of longest diameters (PD): five patients
[2]; 20 evaluable patients, Stage 1
  non-progression rate (NPR) at 3 months: 55%
[2]; Paclitaxel 80 + Cmpnd (1) 106 mg/M^2 weekly
  Best Response cycle 2 week 4: SD (less than 20% of an increase and less than 30% of a decrease in the sum of the longest diameters as compared to baseline); also recorded: PD (at least a 20% increase in the sum of the longest diameters as compared to baseline)
[2]; Paclitaxel 80 + Cmpnd (1) 213 mg/M^2 weekly
  Best Response cycle 2 week 4: SD (less than 20% of an increase and less than 30% of a decrease in the sum of the longest diameters as compared to baseline); also recorded: PD (at least a 20% increase in the sum of the longest diameters as compared to baseline)
[2]; of 20 evaluable patients, Stage 1
  patients stable at 3 months: 11 patients
[2]; patients completing the study (#12-#20, #22)
  patients with at least a 20% increase in sum of longest diameters (PD): seven patients
[3]; Compound (1) 44-525 mg/m2, unaffected by paclitaxel dose
  PK linearity: linear PK
[3]; human plasma, IV over 3 hours co-administered with paclitaxel, cycle 1
  terminal-phase half life: 56.4 ± 13.8 min
[4]; Compound (1) with paclitaxel and carboplatin versus platin/taxane combinations, preliminary data
  time-to-progression (Kaplan-Meier, FIG. 2): superior to the platin/taxane combination alone; also recorded: superior to prior platin/taxane combinations alone
[4]; [7]
  Best Response: PR (at least a 30% decrease in the sum of the longest diameters as compared to baseline); also recorded: SD (less than 20% of an increase and less than 30% of a decrease in the sum of the longest diameters as compared to baseline)
  Target Lesions (percent change): −34% and −24% and −62% and −5.9% and −30% and −67%
[4]; [8]
  Best Response: PR (at least a 30% decrease in the sum of the longest diameters as compared to baseline)
  Target Lesions (percent change): −38% and −44%
[4]; Phase 1, eight of sixteen patients, with carboplatin and paclitaxel
  patients achieving a partial response (PR): 50%
[4]; each patient completing the study (#1-#8)
  target lesion size: substantial decrease
[4]; of the 8 patients completing the study
  patients with best response of at least a 30% decrease in sum of longest diameters: 5 patients
